The test deals with Influenza strain A549 A/WSN/33 (H1N1). The test can be described thus: microbe, parasite or virus in culture. The class given is cell-based. The settings on record: Influenza A virus, A549, 20 h, A549 cells, influenza A/WSN/33 (H1N1), 20 hours incubation; read-out: A549_A(H1N1) EC50.

Broadly, the EC50 is the concentration at which the effect is half-maximal. For the compound `O=C1c2c(O)c(=O)ccn2N2CN1C/C=C\COc1c(F)cccc1[C@H]2c1cccc(F)c1` (single isomer, unassigned) [Compound 59A, (18*R,Z)-4-fluoro-18-(3-fluorophenyl)-12-hydroxy-6,9-dihydro-18H-10,17-methanobenzo[b]pyrido[1,2-f][1]oxa[5,6,9]triazacyclotridecine-11,13-dione], the EC50 came to 5 nM.
To `CC[C@H]1/C=C/COc2c(ccc(F)c2F)[C@@H](c2ccccc2C)N2CN1C(=O)c1c(O)c(=O)ccn12` (single isomer, unassigned) [Compound 167AA, (9*S,18*R,E)-9-ethyl-3,4-difluoro-12-hydroxy-18-(o-tolyl)-6,9-dihydro-18H-10,17-methanobenzo[b]pyrido[1,2-f][1]oxa[5,6,9]triazacyclotridecine-11,13-dione] belongs 0.91 nM; to `CC[C@@H]1/C=C/COc2c(ccc(F)c2F)[C@@H](c2ccccc2C)N2CN1C(=O)c1c(O)c(=O)ccn12` (single isomer, unassigned) [Compound 167AB, (9*R,18*R,E)-9-ethyl-3,4-difluoro-12-hydroxy-18-(o-tolyl)-6,9-dihydro-18H-10,17-methanobenzo[b]pyrido[1,2-f][1]oxa[5,6,9]triazacyclotridecine-11,13-dione], 0.96 nM; to `CC[C@H]1/C=C/COc2c(ccc(F)c2F)[C@H](c2ccccc2C)N2CN1C(=O)c1c(O)c(=O)ccn12` (single isomer, unassigned) [Compound 167BA, (9*S,18*S,E)-9-ethyl-3,4-difluoro-12-hydroxy-18-(o-tolyl)-6,9-dihydro-18H-10,17-methanobenzo[b]pyrido[1,2-f][1]oxa[5,6,9]triazacyclotridecine-11,13-dione], more than 50 nM.
Then `CC[C@@H]1/C=C/COc2c(ccc(F)c2F)[C@H](c2ccccc2C)N2CN1C(=O)c1c(O)c(=O)ccn12` (single isomer, unassigned) [Compound 167BB, (9*R,18*S,E)-9-ethyl-3,4-difluoro-12-hydroxy-18-(o-tolyl)-6,9-dihydro-18H-10,17-methanobenzo[b]pyrido[1,2-f][1]oxa[5,6,9]triazacyclotridecine-11,13-dione], with more than 50 nM; and `O=C1c2c(O)c(=O)ccn2N2CN1C1(/C=C/COc3cc(F)c(F)c4c3[C@H]2c2ncccc2SC4)CCC1` (single isomer, unassigned) [Compound 168B, (21a′*S,*E)-24′,25′-difluoro-16′-hydroxy-6′,21a′-dihydro-10′H-spiro[cyclobutane-1,13′-[7,8](epiprop[1]en[1]yl[3]ylidene)[14,21]methanopyrido[1,2-f]pyrido[2′,3′:6,7]thiepino[4,5-c][1]oxa[5,6,9]triazacyclotridecine]-15′,17′-dione], with 0.6 nM; and `CC(C)[C@H]1/C=C/COc2cc(F)c(F)c3c2[C@H](c2ccccc2SC3)N2CN1C(=O)c1c(O)c(=O)ccn12` (single isomer, unassigned) [Compound 169BA, (9*S,17a*R,*E)-24,25-difluoro-12-hydroxy-9-isopropyl-2,6,9,17a-tetrahydro-3,4-(epiprop[1]en[1]yl[3]ylidene)-10,17-methanobenzo[6,7]thiepino[4,5-c]pyrido[1,2-f][1]oxa[5,6,9]triazacyclotridecine-11,13-dione], with 0.83 nM.
In the case of `CC[C@H]1/C=C/COc2c(ccc(Cl)c2F)[C@@H](c2ccccc2)N2CN1C(=O)c1c(O)c(=O)ccn12` (single isomer, unassigned) [Compound 170BA, (9*S,18*R,E)-3-chloro-9-ethyl-4-fluoro-12-hydroxy-18-phenyl-6,9-dihydro-18H-10,17-methanobenzo[b]pyrido[1,2-f][1]oxa[5,6,9]triazacyclotridecine-11,13-dione], the EC50 came to 24 nM.

The values above are taken from patent publication US11312727B1, “Macrocyclic flu endonuclease inhibitors” (Janssen BioPharma, Inc., priority 2018, dated 2022).
